A word on the pIC50: it is the negative decadic logarithm of the IC50, by convention in mol/L. Read a high pIC50 as a low IC50. Broadly, the pEC50 is the negative decadic logarithm of the EC50, by convention in mol/L.

SMILES strings stand for the structures. pEC50, pIC50: −log10 of the molar value. A value given as a limit tells only on which side of the number the result lay.

IC50, Emax and EC50 data for 26 compounds are collected here from patent US20120115845A1, “THERAPEUTIC AGENTS” (priority 2007, published 2012).

The target of assay [1] is T1, human GHS receptor (Homo sapiens, UniProt Q92847). In words: h bind IC50 (binding assay, Table 1). The conditions noted are these: human receptor; Table 1.
Assay [2] deals with T1, human GHS receptor. As to the kind of experiment: Ghrelin IP1 agonist assay (IP1 HTRF). It counts as cell-based. Set-up: expressed in transfected cells; host or cells: HEK293s. To be noted: for Emax: 2 h, agonist effect as % maximal effect of GHRP-6 (5 μM), read-out: h IP1 ag %; for pEC50: HEK293s cells stably expressing human GHS receptor, 2 hours at 37° C., read-out: h IP1 ag EC50. How it is done: In HEK293s cells stably expressing human GHS receptor (In-house), agonist activity was assessed by measuring intracellular myo-Inositol 1 phosphate (IP1) using the IP1 HTRF assay kit (Cisbio International).
Cells were harvested using accutase (Sigma), spun down at 1000 rpm for 5 minutes and resuspended in stimulation buffer (as above) containing 0.02% fatty acid free BSA at a density of 1.43E6cells/ml.
Agonist effect of the compound was expressed as % maximal effect of GHRP-6 (5 μM: Bachem). Sigmoidal curves were fitted by Origin 7.5 Client and EC50 values determined.
Background: Time-resolved FRET reads energy transfer from a long-lived donor to a nearby acceptor.

T1 sequence (Q92847 whole entry): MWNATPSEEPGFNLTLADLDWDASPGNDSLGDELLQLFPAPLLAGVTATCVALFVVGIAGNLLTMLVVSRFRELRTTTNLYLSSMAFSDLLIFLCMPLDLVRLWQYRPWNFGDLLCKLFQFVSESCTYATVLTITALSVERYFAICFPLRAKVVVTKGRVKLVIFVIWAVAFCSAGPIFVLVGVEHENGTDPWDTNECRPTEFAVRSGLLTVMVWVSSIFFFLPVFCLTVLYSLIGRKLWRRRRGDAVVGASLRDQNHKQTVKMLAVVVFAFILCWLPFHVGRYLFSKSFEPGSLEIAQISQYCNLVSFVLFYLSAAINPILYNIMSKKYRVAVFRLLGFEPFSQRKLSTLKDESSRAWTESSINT

Consider `O=C(NC(=O)c1ccccc1Cl)Nc1nc2ccc(S(=O)(=O)CCN3CCC(F)(F)C3)cc2s1` [Example 21, 2-Chloro-N-[[6-[2-(3,3-difluoropyrrolidin-1-yl)ethylsulfonyl]benzothiazol-2-yl]carbamoyl]benzamide], for which the pIC50 in assay [1] was 5.78. In assay [2], the Emax amounted to 16.9% and the pEC50 is 6.66.

`CC1CN(CCS(=O)(=O)c2ccc3nc(NC(=O)NC(=O)c4ccccc4Cl)sc3c2)CC(C)N1` (stereo not drawn) [Example 24, 2-Chloro-N-[[6-[2-(3,5-dimethylpiperazin-1-yl)ethylsulfonyl]benzothiazol-2-yl]carbamoyl]benzamide] had a pIC50 in assay [1] of 7.60. In assay [2], the Emax was found to be 54% and the pEC50 was 8.19.

On to `O=C(NC(=O)c1ccccc1Cl)Nc1nc2ccc(S(=O)(=O)CCNC3CCC3)cc2s1` [Example 25, 2-Chloro-N-[[6-[2-(cyclobutylamino)ethylsulfonyl]benzothiazol-2-yl]carbamoyl]benzamide], for which, in assay [1], the negative logarithm of the IC50 (pIC50) is 6.72. In assay [2], the Emax was determined as 34.7% and the pEC50 was 7.86.

Consider `CN(CCS(=O)(=O)c1ccc2nc(NC(=O)NC(=O)c3ccccc3Cl)sc2c1)CC1CCCO1` (stereo not drawn) [Example 26, 2-Chloro-N-[[6-[2-(methyl-(oxolan-2-ylmethyl)amino)ethylsulfonyl]benzothiazol-2-yl]carbamoyl]benzamide], for which the pIC50 in assay [1] is 6.37. For the same compound, in assay [2], the Emax is 26.1% and the pEC50 is 6.21.

For the compound `CC1CCCCN1CCS(=O)(=O)c1ccc2nc(NC(=O)NC(=O)c3ccccc3Cl)sc2c1` (stereo not drawn) [Example 27, 2-Chloro-N-[[6-[2-(2-methyl-1-piperidyl)ethylsulfonyl]benzothiazol-2-yl]carbamoyl]benzamide], in assay [1], the pIC50 is 6.94. In assay [2], the Emax was 46.7% and the pEC50 was 7.64.

Consider `CC(C)CNCCS(=O)(=O)c1ccc2nc(NC(=O)NC(=O)c3ccccc3Cl)sc2c1` [Example 28, 2-Chloro-N-[[6-[2-(2-methylpropylamino)ethylsulfonyl]benzothiazol-2-yl]carbamoyl]benzamide], for which the pIC50 in assay [1] is 7.37. Further, in assay [2], the Emax came to 44.6% and the pEC50 was 7.47.

Consider `O=C(NC(=O)c1ccccc1Cl)Nc1nc2ccc(S(=O)(=O)CCN3CCCOCC3)cc2s1` [Example 30, 2-Chloro-N-[[6-[2-(1,4-oxazepan-4-yl)ethylsulfonyl]benzothiazol-2-yl]carbamoyl]benzamide], for which the pIC50 in assay [1] was 6.60. For the same compound, in assay [2], the Emax amounted to 23.8% and the pEC50 is 7.41.

For `O=C(NC(=O)c1ccccc1Cl)Nc1nc2ccc(S(=O)(=O)CCN3CC[C@@H](F)C3)cc2s1` [Example 32, 2-Chloro-N-[[6-[2-[(3R)-3-fluoropyrrolidin-1-yl]ethylsulfonyl]benzothiazol-2-yl]carbamoyl]benzamide], in assay [1], the pIC50 was 6.40. Further, in assay [2], the Emax was 28% and the pEC50 was 6.51.

In assay [1], `O=C(NC(=O)c1ccccc1Cl)Nc1nc2ccc(S(=O)(=O)CCN3CCCCC3)cc2s1` [Example 33, 2-Chloro-N-[[6-[2-(1-piperidyl)ethylsulfonyl]benzothiazol-2-yl]carbamoyl]benzamide] showed a pIC50 of 7.05. In assay [2], the Emax amounted to 41.5% and the pEC50 was 7.60.

For the compound `O=C(NC(=O)c1ccccc1Cl)Nc1nc2ccc(S(=O)(=O)CCNCC3CC3)cc2s1` [Example 34, 2-Chloro-N-[[6-[2-(cyclopropylmethylamino)ethylsulfonyl]benzothiazol-2-yl]carbamoyl]benzamide], the pIC50 in assay [1] is 7.00. Further, in assay [2], the Emax was 46.7% and the pEC50 is 7.95.

On to `O=C(NC(=O)c1ccccc1Cl)Nc1nc2ccc(S(=O)(=O)CCNC3CC4CCC3C4)cc2s1` (stereo not drawn) [Example 35, 2-Chloro-N-[[6-[2-(norbornan-2-ylamino)ethylsulfonyl]benzothiazol-2-yl]carbamoyl]benzamide], for which the pIC50 in assay [1] was 7.15. In addition, in assay [2], the Emax amounted to 56.1% and the pEC50 is 7.98.

`COCC1CCCN1CCS(=O)(=O)c1ccc2nc(NC(=O)NC(=O)c3ccccc3Cl)sc2c1` (stereo not drawn) [Example 36, 2-Chloro-N-[[6-[2-[2-(methoxymethyl)pyrrolidin-1-yl]ethylsulfonyl]benzothiazol-2-yl]carbamoyl]benzamide]: the pIC50 in assay [1] was 6.52. For the same compound, in assay [2], the Emax turned out to be 34.3% and the pEC50 is 8.02.

`O=C(NC(=O)c1ccccc1Cl)Nc1nc2ccc(S(=O)(=O)CCN3C[C@@H]4C[C@H]3CO4)cc2s1` [Example 37, 2-Chloro-N-[[6-[2-[(1S,4S)-3-oxa-6-azabicyclo[2.2.1]hept-6-yl]ethylsulfonyl]benzothiazol-2-yl]carbamoyl]benzamide] gave a pIC50 in assay [1] of 6.63. Besides, in assay [2], the Emax was found to be 24% and the pEC50 is 7.21.

In assay [1], `CC(C)OCCNCCS(=O)(=O)c1ccc2nc(NC(=O)NC(=O)c3ccccc3Cl)sc2c1` [Example 38, 2-Chloro-N-[[6-[2-(2-propan-2-yloxyethylamino)ethylsulfonyl]benzothiazol-2-yl]carbamoyl]benzamide] had a negative logarithm of the IC50 (pIC50) of 6.75. In assay [2], the Emax stood at 40% and the pEC50 was 7.83.

As for `O=C(NC(=O)c1ccccc1Cl)Nc1nc2ccc(S(=O)(=O)CCO)cc2s1` [Example 41, 2-Chloro-N-[[6-(2-hydroxyethylsulfonyl)benzothiazol-2-yl]carbamoyl]benzamide], the pIC50 in assay [1] is 6.27. Moreover, in assay [2], the Emax was found to be 18.1% and the pEC50 is 7.02.

For `CN(C)CCOCCS(=O)(=O)c1ccc2nc(NC(=O)NC(=O)c3ccccc3Cl)sc2c1` [Example 43, 2-Chloro-N-[[6-[2-(2-dimethylaminoethoxy)ethylsulfonyl]benzothiazol-2-yl]carbamoyl]benzamide], the pIC50 in assay [1] was 7.29. Further, in assay [2], the Emax is 46% and the pEC50 was 7.38.

With `O=C(NC(=O)c1ccccc1Cl)Nc1nc2ccc(S(=O)(=O)C3CCNC3)cc2s1` (stereo not drawn) [Example 44, 2-Chloro-N-[(6-pyrrolidin-3-ylsulfonylbenzothiazol-2-yl)carbamoyl]benzamide], the pIC50 in assay [1] was 7.74. Also, in assay [2], the Emax was determined as 49% and the pEC50 is 8.24.

Take `CS(=O)(=O)c1ccc2nc(NC(=O)NC(=O)c3cc(-c4ccccn4)ccc3Cl)sc2c1` [Example 45, 2-Chloro-5-(pyridin-2-yl)-N-(6-(methylsulfonyl)benzothiazol-2-ylcarbamoyl)benzamide]: the pIC50 in assay [1] is 7.67. Further, in assay [2], the Emax is 0.946% and the pEC50 was at most 4.60.

Consider `CS(=O)(=O)c1ccc2nc(NC(=O)NC(=O)c3cc(-n4cccn4)ccc3Cl)sc2c1` [Example 46, 2-Chloro-5-(pyrazol-1-yl)-N-(6-(methylsulfonyl)benzothiazol-2-ylcarbamoyl)benzamide], for which the pIC50 in assay [1] is 7.92. In assay [2], the Emax worked out at 0.5% and the pEC50 is 5.08.

`CS(=O)(=O)c1ccc2nc(NC(=O)NC(=O)c3cc(-n4ccnn4)ccc3Cl)sc2c1` [Example 47, 2-Chloro-5-[1,2,3]triazol-1-yl-N-(6-(methylsulfonyl)benzothiazol-2-ylcarbamoyl)benzamide] gave a pIC50 in assay [1] of 7.09. Further, in assay [2], the Emax was found to be 0% and the pEC50 is at most 4.60.

Compound `CS(=O)(=O)c1ccc2nc(NC(=O)NC(=O)c3cc(N4CCCC4)ccc3Cl)sc2c1` [Example 48, 2-Chloro-5-(1-pyrrolidinyl)-N-(6-(methylsulfonyl)benzothiazol-2-ylcarbamoyl)benzamide] gave a pIC50 in assay [1] of 8.89. In assay [2], the Emax came out at 0.32% and the pEC50 was at most 4.60.

On to `CS(=O)(=O)c1ccc2nc(NC(=O)NC(=O)c3cc(C4CC4)ccc3Cl)sc2c1` [Example 49, 2-Chloro-5-cyclopropyl-N-(6-(methylsulfonyl)benzothiazol-2-ylcarbamoyl)benzamide], for which the negative-log IC50 (pIC50) in assay [1] is 7.89. Besides, in assay [2], the Emax was determined as 0% and the pEC50 is at most 4.60.

With `CS(=O)(=O)c1ccc2nc(NC(=O)NC(=O)c3cc(N4CC=CC4)ccc3Cl)sc2c1` [Example 50, 2-Chloro-5-(2,5-dihydro-pyrrol-1-yl)-N-(6-(methylsulfonyl)benzothiazol-2-ylcarbamoyl)benzamide], the pIC50 in assay [1] was 9.00. Further, in assay [2], the Emax was 0% and the pEC50 is at most 4.60.

For `CS(=O)(=O)c1ccc2nc(NC(=O)NC(=O)c3cc(OC4CCCC4)ccc3Cl)sc2c1` [Example 51, 2-Chloro-5-cyclopentyloxy-N-(6-(methylsulfonyl)benzothiazol-2-ylcarbamoyl)benzamide], in assay [1], the pIC50 is 7.85. In assay [2], the Emax amounted to 1% and the pEC50 was 7.80.

Regarding `CS(=O)(=O)c1ccc2nc(NC(=O)NC(=O)c3cc(C4CCCC4)ccc3Cl)sc2c1` [Example 52, 2-Chloro-5-cyclopentyl-N-(6-(methylsulfonyl)benzothiazol-2-ylcarbamoyl)benzamide], the pIC50 in assay [1] is 8.43. In assay [2], the Emax is 0% and the pEC50 is at most 4.60.

The compound `CCOc1ccc(Cl)c(C(=O)NC(=O)Nc2nc3ccc(S(C)(=O)=O)cc3s2)c1` [Example 53, 2-Chloro-5-ethoxy-N-(6-(methylsulfonyl)benzothiazol-2-ylcarbamoyl)benzamide] showed a pIC50 in assay [1] of 8.00. Further, in assay [2], the Emax stood at 0% and the pEC50 is at most 4.60.
